Results published in patent US8202696B2, “Means for use in treating diseases correlated with or caused by non-physiological levels of microtubule-associated PP2Ac” (Max-Planck-Gessellschaft zur Forderung der Wissenschaften …, priority 2002, dated 2012).
Where no end group is shown, it is not given here.

Tested on: tau protein
Assay: Tau-1 and pan-Tau immunofluorescence in transfected postnatal sympathetic neurons
Type: cell-based, rat
Settings: compared to non-transfected neurons = 100%, two days after transfection
Protocol: Peripheral sympathetic neurons were obtained from postnatal day 1-3 rats. […] Following mechanical dissociation the cell suspension was filtered through a 40 μm nylon mesh and seeded at 6 SCGs per well into uncoated Falcon dishes for preplating purposes. After 4 hours neurons were transferred into glass floor dishes (Willco Wells B.V., gwst 3522, 3.8 cm^2 area/dish) coated with poly-D-lysine/laminin. Neurons were maintained in RPMI medium containing antibiotics, N2 additive (Invitrogen) and 100 ng/ml nerve growth factor (NGF; Sigma) at 37° C. in a humidified atmosphere with 5% CO2.
Neurons were transfected 2 hours after seeding applying the biolistic approach. This method uses a hand held gun to bombard dissociated neurons at high velocity with micron-size gold particles loaded with DNA. The coating of gold particles with DNA was achieved using a modification of the manufacturer's instructions (Bio-Rad Laboratories). For preparation of 35 cartridges 25 mg gold particles (1.6 μm diameter) were suspended in 50 μl of 0.05 M spermidine. After vortexing and sonication for 5 seconds, 50 μg plasmid DNA dissolved in 50 μl TE buffer was added (for co-transfection experiments, 80 μg were used, i.e., 40 μg Plasmid I+40 μg Plasmid 2). The amount of gold particles and DNA corresponds to a microcarrier loading quantity (MLQ) of about 0.7 (mg/cartridge) and to a DNA loading ratio (DLR) of 2 (μg/mg) for single transfection experiments. DNA, spermidine and gold were then mixed for 5 sec in a variable speed vortexer. At low vortexing speed, 50 μl 1 M CaCl2 was added dropwise to the mixture for association of DNA with the gold particles followed by precipitation for 10 min at room temperature. The supernatant was removed and the pellet rinsed with 800 μl of 100% ethanol. Washing was repeated two times with centrifugation steps at 3000 g between each wash. […]
A fully motorized Zeiss Axiovert 100M microscope equipped for inverted fluorescence was used for visualization of fluorescent neurons. […]

With “B-Box1: peptide derived from the MID1 domain that is responsible for α4 binding (amino acids 108-165), expressed from plasmid (ANTMTSAEKVLCQFCDQDPAQDAVKTCVTCEVSYCDECLKATHPNKKPFTGHRLIEPI; cysteine pairing not given here; also: myc tag; UniProt O15344 108-165, looked up, fragment)” the “Tau-1 immunoreactivity (dephosphorylated tau)” value (listed as B-BOX1) was “significantly increased” and the “Tau-1 immunoreactivity (dephosphorylated tau)” value (listed as Bbox1) was “pronounced increase in fluorescence”.
